# Laboratory results reported in patent US20050239723A1, “Compositions and methods useful for treatment of acne” (priority 2004, published 2005).
# Where two headings read alike, the source gives them in different places.
# How the values were obtained:
# [1] = tested on: Propionibacterium acnes ATCC #11827; assay: Antimicrobial susceptibility testing (MIC) by the agar dilution method; type: cell-based; conditions: Cutibacterium acnes
# [2] = tested on: patients with mild to moderate acne vulgaris; assay: Open label study of NV-02 in the topical treatment of mild to moderate acne vulgaris; type: in vivo, human; conditions: after topical NV-02 twice daily; varied between and within patients
# Description: The results were from a study of twenty patients (5 males, 15 females) who were enrolled with varying ethnicity: Caucasian(12), African American (6), Hispanic (1), and Asian (1). The age range was from 20 to 48 years (mean 29.6 years). All subjects received open-label PCL-016 10% gel to be applied twice daily to the face over 12 weeks.
# The experiment was performed as indicated for the per protocol analysis described under FIG. 1 above.
# 22, 2002 • Date of last completed: May 2, 2003 • Methodology: Open label study • Number of patients (planned and analyzed): 15 patients planned, 20 enrolled, 15 completed. • Diagnosis and main criteria for inclusion: mild to moderate acne vulgaris • Test product, dose and mode of administration, batch number: NV-02 applied twice daily to affected areas of the face; Novactyl lot number 155 • Duration of treatment: twice daily for 3 months • Criteria for evaluation: • Efficacy: Total lesion counts, inflammatory lesion count, non-inflammatory lesion count, and Cunliffe's grade, FDA scale • Safety: Adverse events, PCL-0 16 plasma levels, serum chemistry, complete blood count • Statistical Methods: descriptive statistics of patient population, patient demographics, and lesion counts, etc.; changes in lesion counts relative to baseline; percent reduction in lesion counts. […]
# [3] = tested on: skin; assay: Cumulative irritation study (cream vehicle); type: in vivo; conditions: different (cream) vehicle
# [4] = tested on: acne lesions; conditions: cited from earlier work
smiles,measurement,setting,value
"O=C(O)c1ccccn1 [Picolinic acid, pyridine-2-carboxylic acid]",MIC,"[1]; ATCC11827, P. acnes ATCC #11827, Supplemented Brucella agar with blood, 48-72 hours at 35±2° C., anaerobic, read-out: Minimum Inhibitory Concentration (MIC): lowest concentration that visibly prevented growth",500 µg/mL
same,absorption into the systemic circulation (plasma levels),[2],Small amounts
same,risk of topical irritation to the skin,[3],low risk of topical irritation
CC1=C(/C=C/C(C)=C/C=C/C(C)=C/C(=O)O)C(C)(C)CCC1 [Tretinoin],reduction of total lesions counts,[4]; topical agent on the market,32-45%
same,photosensitization,[4]; topical,photosensitizing
CCCCc1ccc(C(=O)O)nc1 [fusaric acid],MIC,"[1]; ATCC11827, read-out: Minimum Inhibitory Concentration (MIC): lowest concentration that visibly prevented growth",100 µg/mL
